Experimental data published in patent publication US12319678B2, “Thioridazine derivatives and their use for the treatment of cancer” (UNIVERSITA' DEGLI STUDI DI PADOVA, priority 2019, dated 2025).

Experiments:
NSG mice = experiment: Stepping test (akinesia, neuroleptic effects); assay type: in vivo; details: for neuroleptic effects (akinesia, stepping test): i.p., 36.85 μmol/Kg (corresponding to 15 mg/kg of TDZ), 1 h after injection
Protocol: Twelve NSG mice between 6 and 8 weeks of age were randomized in 4 groups (DMSO, thioridazine (TDZ), compound according to Example 1 (TDZ2) and compound according to Example 2 (TDZ6)), and treated every 2 days with growing doses of drugs, administered ip. […] The successive growing doses were 10 mg/kg, 12 mg/kg and finally 15 mg/kg, and the corresponding molar dose of the analogues. The stepping test was performed as previously described (Blume S R, Cass D K, Tseng K Y. Stepping test in mice: A reliable approach in determining forelimb akinesia in MPTP-induced Parkinsonism. Exp Neurol. 2009; 219:208-11) 1 h after drug injection, documented to be the time with the maximum TDZ serum concentration (Nagel D, Spranger S, Vincendeau M, Grau M, Raffegerst S, Kloo B, et al. Pharmacologic Inhibition of MALT1 Protease by Phenothiazines as a Therapeutic Approach for the Treatment of Aggressive ABC-DLBCL. Cancer Cell. 2012; 22:825-37). Briefly, the stepping test was performed on an open table and each trial was recorded using a digital video camera. The animal was allowed to settle at one edge of the table, then the experimenter would lift up the hind legs by pulling up on the tail, leaving only the forepaws touching the table, for a total distance of 1 m. The number of steps from both forepaws and the time used were computed.

[1] = tested on: SHI-1, an AML cell line with the genetic aberrancy t(6;11); experiment: Apoptosis assay (Annexin-V/propidium iodide) in t(6;11) SHI-1 cells; assay type: cell-based; details: for cytotoxic activity on t(6;11) AML cells (cell death): SHI-1, 24 h after treatment, compared with TDZ; for apoptotic and dead cells: relative to DMSO
Protocol: (§1) Apoptosis was evaluated by double staining with Annexin-V/propidium iodide (Roche Biochemicals, Indianapolis, IN) and analyzed using Cytometer F C500 (Beckman Coulter, Brea, CA). Increased apoptosis was calculated and expressed as the percentage of Annexin-V-positive and propidium iodide-positive cells compared to those exposed to DMSO.

SHI-1 cells = experiment: Intracellular Ca2+ measurement (Fluo-4 AM) in SHI-1 cells; assay type: cell-based; details: for mechanism of Ca2+ influx: SHI-1, Ca2+-containing or Ca2+-free buffer
Protocol: (§2) Intracellular Ca^2+ levels were monitored by Fluo-4 AM fluorescence according to the manufacturer's instructions. Briefly, cells were washed in Hanks Balanced Salt Solutions, incubated with Fluo-4 AM 3 μM diluted in the working buffer (0.02% w/v Pluronic and 0.2 mM sulfinpyrazone, both sourced from Sigma-Aldrich-Merck, in 10 mM HEPES-buffered Hanks) for 30′ at RT. After incubation, cells were washed and resuspended in working buffer with CaCl2) 0.2 mg/I for 30′, to allow the de-esterification of Fluo-4 AM. Results were evaluated using the FC500 cytometer, and 2-photon microscope Thorlabs. In both experiments, the mean fluorescence intensity (MFI) was detected at basal condition, and up to 5 minutes after treatment.

[2] = tested on: primary cultures from patients with t(6;11) AML; experiment: Apoptosis assay in primary t(6;11) AML cultures; assay type: cell-based; details: primary t(6;11) AML compared with non-t(6;11)-AML; 24 and 48 h
Protocol: as §1

t(6;11) primary cells = experiment: Intracellular Ca2+ measurement (Fluo-4 AM) in t(6;11) primary cells; assay type: cell-based; details: primary cultures of t(6;11) AML
Protocol: as §2

[3] = tested on: other AML cell lines harboring other genetic mutations (HL60, NOMO1, SKNO-1); experiment: Apoptosis assay in non-t(6;11) AML cell lines; assay type: cell-based; details: 24 and 48 h
Protocol: as §1

t(6;11) SHI-1 cells [4] = experiment: Mitochondrial membrane potential (TMRE); assay type: cell-based; details: 6 and 24 h after treatment, compared with DMSO
Protocol: Mitochondrial membrane potential was measured by using TMRE Assay Kit (ab113852, Abcam), following manufacturer's instructions Briefly, TMRE 200 nM diluted in BSA 0.2%-PBS1× was added for 20′ at 37° C. Cells were analyzed by flow cytometry using FC500.

[5] = tested on: mice xenografted with HL60 or THP1; experiment: Flank injection xenograft, HL60 or THP1; assay type: in vivo, NSG mice; details: 8 mg/kg daily i.p.
Protocol: (§3) Animal experiments were approved by the animal ethics committee of University of Padova and by Italian Minister of Health n° 512/2019-PR, and were executed in accordance with national guidelines and regulations. For flank injection experiments, six NOD-SCID interleukin-2 receptor gamma null (NSG) mice between 6 and 8 weeks of age were injected subcutaneously with 2×10^6 SHI-1, HL60 or THP-1 cells per flank-injection. Each mouse received two flank-injections. When tumors reached an area of 25 mm^2, mice were randomized in 2 groups (control and TDZ-treated), and daily treated with intraperitoneally (ip) administered TDZ 8 mg/kg. Experimental endpoint is reached when tumors reached an area of 250 mm^2.
(§4) TDZ was also used for further tests and particularly to test if it had same effects on leukemia growth in vivo in NOD/scid IL-2Rgnull (NSG) mice flank-injected with the SHI-1-t(6;11) or non-t(6;11) AML cell lines HL60 and THP-1. Xenografted tumor was allowed to grow up to ˜[…] before starting daily intraperitoneal (i.p.) TDZ administration (at 8 mg/kg concentration, below the previously described tolerated dose (Nagel D, Spranger S, Vincendeau M, Grau M, Raffegerst S, Kloo B, et al. Pharmacologic Inhibition of MALT1 Protease by Phenothiazines as a Therapeutic Approach for the Treatment of Aggressive ABC-DLBCL. Cancer Cell. 2012; 22:825-37)).

SHI-1 xenografted mice = experiment: Flank injection xenograft, SHI-1; assay type: in vivo, NSG mice; details: 8 mg/kg daily i.p., compared with control (p<0.01 and p<0.001)
Protocol: as §3, §4

t(6;11) SHI-1 cells [6] = experiment: Reactive oxygen species (CellROX) by flow cytometry; assay type: cell-based; details: 6, 16 and 24 h after treatment, compared with DMSO
Protocol: ROS production was monitored by flow cytometry using CellROX Deep Red Reagent (C10422, Invitrogen) following manufacturer's instructions. Briefly, CellROX Deep Red Reagent was added at a final concentration of 5 μM to the cells and incubated for 30 minutes at 37° C. Cells were washed three times with PBS, and analyzed by flow cytometry using Cytoflex (Beckman Coulter).

[7] = tested on: t(6;11)-AML primary cells; experiment: Colonies forming assay in t(6;11)-AML primary cells; assay type: cell-based
Protocol: (§5) After 24 h of treatment, a total of 5×10^2 ML2, SHI-1, HL60, SKNO-1 or NOMO-1 cells and 3×10^3 primary blasts from patients with t(6;11)—rearranged AML were seeded into 500 μl of MethoCult™ (H4230 and H4534 respectively, Stemcell Technologies, Meda M B, Italy), in 24-well plates and incubated at 37° C. Fourteen days after seeding, an adequate volume of a 1:6 solution of 3-[4,5-dimethylthiazol-2-yl]-2,5-diphenyltetrazolium bromide (MTT, Sigma-Aldrich-Merck) in Hanks' was added to semisolid medium. Images were acquired by optical microscope with camera, and colonies were counted using ImageJ software.

[8] = tested on: non-t(6;11) HL60, NOMO-1, SKNO-1 cells; experiment: Colonies forming assay in non-t(6;11) AML cell lines; assay type: cell-based; details: 24 h of treatment, other AML cell lines
Protocol: as §5

[9] = tested on: healthy bone marrow (HBM) cells; experiment: Apoptosis assay in healthy bone marrow cells; assay type: cell-based; details: 24 and 48 h
Protocol: as §1

t(6;11) SHI-1 cells [10] = experiment: Colonies forming assay in t(6;11) SHI-1 cells; assay type: cell-based; details: 24 h pre-treatment, viable cells seeded in drug-free condition
Protocol: as §5

COCCOCCOCCN1CCCCC1CCN1c2ccccc2Sc2ccc(SC)cc21 (stereo not shown) [TDZ2]
neuroleptic effects (akinesia, stepping test) (NSG mice): did not induce neuroleptic effects | cytotoxic activity on t(6;11) AML cells (cell death) [1]: maintain cytotoxic activity | mechanism of Ca2+ influx (SHI-1 cells): same mechanism of Ca^2+ influx of TDZ

CSc1ccc2c(c1)N(CCC1CCCCN1C)c1ccccc1S2 (racemic) [TDZ, thioridazine]
apoptosis [2]: induced apoptosis selectively | cytosolic Ca2+ influx (t(6;11) primary cells): increased cytosolic Ca^2+ influx | apoptosis and cell death [3]: almost no effects | side effects (NSG mice; 8 mg/kg i.p. starting dose, previously tested): free of side effects | neuroleptic effects (akinesia, stepping test) (NSG mice): provokes severe central side effects | mitochondrial depolarization (TMRE) (t(6;11) SHI-1 cells [4]): mitochondrial depolarization | apoptotic and dead cells ([1]; SHI-1, 24 h of treatment): 60.8% | apoptotic and dead cells ([1]; SHI-1, 48 h of treatment): 84.3% | apoptosis level after MLL-AF6 silencing ([1]; SHI-1, treatment 16 h after MLL-AF6 silencing, 8, 24 and 30 h after treatment): significant rescue of apoptosis level | tumor growth [5]: not affected | progression of tumor growth (SHI-1 xenografted mice): significantly reduced the progression of tumor growth | reactive oxygen species (ROS) (t(6;11) SHI-1 cells [6]): highly increased | intracellular Ca2+, MFI (Fluo-4 AM, flow cytometry) (SHI-1 cells; 0 minutes post treatment): 68.9 | intracellular Ca2+, MFI (Fluo-4 AM, flow cytometry) (SHI-1 cells; 1 minute post treatment): 91.8 | intracellular Ca2+, MFI (Fluo-4 AM, flow cytometry) (SHI-1 cells; 3 minutes post treatment): 85.8 | intracellular Ca2+, MFI (Fluo-4 AM, flow cytometry) (SHI-1 cells; 5 minutes post treatment): 85.4 | rise in intracellular Ca2+ concentration (SHI-1 cells; Ca2+-containing buffer (external Ca2+ present)): triggers a rise in intracellular Ca^2+ concentration in the presence | Ca2+ intake after EGTA pre-treatment (SHI-1 cells; SHI-1, EGTA pre-treatment 30' before TDZ): Ca^2+ intake was prevented | colony-forming ability [7]: abrogated colony-forming ability | clonogenic potential [8]: did not decrease the clonogenic potential | toxic effects [9]: no toxic effects | colony-forming ability (t(6;11) SHI-1 cells [10]): abrogated colony-forming ability

CSc1ccc2c(c1)N(CCC1CCCCN1CCOCCOCCN)c1ccccc1S2 (stereo not shown) [TDZ6]
neuroleptic effects (akinesia, stepping test) (NSG mice): did not induce neuroleptic effects | cytotoxic activity on t(6;11) AML cells (cell death) [1]: maintain cytotoxic activity | mechanism of Ca2+ influx (SHI-1 cells): same mechanism of Ca^2+ influx of TDZ
